Source: patent publication US20240373849A1, “INSECT NEUROPEPTIDE ANALOGUES” (THE UNIVERSITY COURT OF THE UNIVERSITY OF GLASGOW, priority 2020, published 2024)
Values joined by “and” are separate entries in the source; they are usually repeats but may differ in a detail not shown here. Equal values may be shown once. Square brackets hold non-standard residues; d marks the D form. * marks the point of attachment. Guanidyl = -C(=N+Me2)NMe2 on the N-terminal amine (tetramethylguanidyl cap), CN(C)C(=[N+](C)C)*; Benzoyl(4-benzoyl) = O=C(c1ccccc1)c1ccc(C(=O)*)cc1; Palmitoyl = CCCCCCCCCCCCCCCC(=O)*; NMeV = CN[C@H](C(=O)O)C(C)C; NMeA = CN[C@@H](C)C(=O)O; Aib = CC(C)(N)C(=O)O

How the values were obtained:
[1] = system: Drosophila suzukii larvae; experiment: Drosophila suzukii larval feeding (Example 8; peptide screening); type: in vivo; set-up: key to D. suzukii (Sig Diff Grp): A indicates a significant difference in survival compared with control (blank).; B indicates a significant difference in survival compared with scrambled capa1.; C indicates a significant difference in survival compared with scrambled capa2; conditions: for Feeding D. suzukii, % lethality in population after adjustment for baseline: 10^−5 M, 48 hr exposure; for D. suzukii (Mean% Lethality ± SD) / D. suzukii (Sig Diff Grp): Peptide screening, Table 5; for D. suzukii (Mean% Lethality ± SD): blank control 20.33; for D. suzukii (Sig Diff Grp): difference in survival
Experimental: (§1) First to Fourth generations of peptides were produced with varying structures and tested for CAPA receptor agonist activity, and screened for lethality in vivo against D. suzukii and M. persicae as per methods in example 2 and example 8. The top performing peptides were selected and gave rise to the list of CAPA1 and CAPA2 peptides provided above in Table 1 which were then further tested in the following applied examples.
Peptides were tested at concentrations ranging from [10^−4 M] to [10^−7 M] in a final volume of 200 μl of 0.8% agarose containing 0.09% m-Cresol purple pH marker dye (Sigma) and 5% sucrose (Sigma).
Agarose was melted in dH2O, before addition of sucrose and dye. The agarose/dye solution was then allowed to cool to 60° C. 96 well plates (flat-bottomed 3596 TC-plates; Corning) containing 20 μl volumes of neuropeptide per well were prepared, and 180 μl agarose/dye solution dispensed into each well via a Distriman repetitive micro-pipettor (Gilson). Controls contained 20 μl dH2O as a ‘sham’ treatment with 180 μl of the 0.8% agarose/dye solution. Plates were agitated at 800 rpm, to ensure mixing, at 60° C. (Eppendorf Thermomixer C). Plates were then allowed to cool, and agarose/dye solution solidify, prior to use.
Each peptide was assayed with a minimum of 7 to maximum 9 late L2/early L3 Spotted wing Drosophila, Drosophila suzukii, (feeding) larvae per well, minimum n=8 wells per peptide concentration and a minimum n=12 control wells per plate. The selected larvae were first washed 2× in ice cold Drosophila Schneider's liquid medium (ThermoFisher) before insertion into wells to remove extraneous food. After complete insertion of all larvae the plates were covered with breathable sealing membrane for multi-well plates (Sigma).
Larvae were assayed for lethality after 48 hr exposure at 21° C. and findings recorded. During examination the assay plate was kept on ice, to reduce larval locomotor activity (wandering), and larvae in each well were examined using a binocular stereomicroscope (Zeiss).
The water control group was used to determine baseline lethality. Results for neuropeptide analogues were calculated as % lethality in the remaining population after adjustment for the baseline. Results are shown in Tables 7 and 8 below, and in FIG. 1.

M. persicae [2] = experiment: Feeding of aphids with peptides in artificial diet (Example 1); type: in vivo, Myzus persicae; conditions: 10^−5 M
Experimental: A standard artificial diet for M. persicae was produced as described in Van Emden (2009) and provided the basal diet to which peptides were added for screening purposes. Peptides were diluted individually in the artificial diet to a pre-determined concentration.
Feeding apparatus were constructed using a set-up developed by Sadeghi et al (2009). For this, a piece of Parafilm was stretched over a Plexiglas ring (h=4 cm, Ø=3 cm) and 100 μl of the artificial diet containing the desired neuropeptide analogue was pipette onto the Parafilm membrane. A second piece of Parafilm, stretched to 4 times the original thickness, was stretched over the original layer, sandwiching the artificial diet between two layers of Parafilm. A strip of Parafilm was wrapped around the circumference of the Plexiglas ring, sealing in the diet. A plastic ring (h=1.2 cm, Ø=3.4 cm) was subsequently placed over the Parafilm layer, creating a walled chamber in which to house test aphids in contact with the Parafilm layer containing the artificial diet. Finally, a small Petri dish (h=1 cm, Ø=3.6 cm), modified for ventilation with net cloth, was placed on top of each feeding apparatus to prevent aphid escape.
To obtain aphids for use in experiments, reproducing anholocyclic adults were placed on individual excised leaves of Chinese cabbage at densities of 5 adults per leaf and allowed to reproduce for 24 h. The stem of each excised leaf was held within a 0.5 mL Eppendorf tube containing water via a punctured hole in the Eppendorf lid, and placed individually within a microcage (L=4 cm, Ø=9.5 cm). Following 24h, adults were removed and resultant first instar nymphs (<1 day old and synchronised in age to within 24h) retained. Nymphs were allowed to develop on the Chinese cabbage for 5 days. On day 5, (3rd instar) nymphs were transferred onto the artificial diet containing a neuropeptide analogue at densities of 1 per feeding chamber and monitored daily until death. Aphids were transferred to fresh artificial diet (containing neuropeptide analogue or water control) every 5 days.
The water control group was used to determine baseline lethality. Results for neuropeptide analogues were calculated as % lethality in the remaining population after adjustment for the baseline.

M. persicae [3] = experiment: Feeding of aphids with peptides in artificial diet (Example 2; peptide screening, honeydew); type: in vivo, Myzus persicae
From the text: as §1
The aphid feeding protocol was devised according to Sadeghi et al (2009) as explained in example 1. Feeding discs were designed and manufactured as above. A standard sucrose-based artificial diet for M. persicae (30 aphids per chamber, 3 chambers per experiment unless otherwise stated) was produced as described in example 1 (Sadeghi et al, J. Insect Science, 2009) and provided the basal diet to which peptides were added for screening purposes. Peptides were diluted individually in the artificial diet to 10^−5 M. Lethality was scored after up to 120 hours (IRAC guidelines for aphid testing).
Membrane discs were also included to collect ‘honeydew’ secreted by feeding aphids and stained with ninhydrin to observe feeding patterns.
Comparison of purple stain in controls to treated aphids, show there is very little colour on many membranes where peptides were added.
Capa peptides cause mortality in M. persicae via feeding: At 120 hours, AH383 and AH387 peptides induce ˜60% mean (and median) lethality. Although mean lethality is lower with AH270/PEGAH270 (40%), 100% lethality is observed in one sample of 30 insects (AH270); and 90% in at least one sample of each of AH383, AH387 and PEGAH270 (FIG. 3). Note that PEGAH270 is a pegylated form of peptide AH270.

Myzus persicae aphids = experiment: Topical application by spraying, Potter Spray Tower (Example 3); type: in vivo; conditions: 10^−5 M; 48 hours post spray
Experimental: Aphids were exposed to test peptides in the absence of additional external stress conditions.
Brassica rapa (Chinese cabbage; Wong Bok) were infested with 30 adult Myzus persicae aphids per plant. Aphids were left at least 2 hours to settle and begin feeding from the host plant.
Potter Spray Tower (Burkard Manufacturing) was ‘primed’ by spraying 1000 μl of liquid coating the inside of the tower. Vehicle spray only (Croda ATPlus UEP 100 LQ-(CQ) 0.1% v/v) was used as a control.
Spray volumes for all solutions were 3000 μl. […] After spraying was completed the plant was allowed to rest on the spray platform for 30 seconds to allow settling of the sprayed chemical.
Post peptide application, each condition was placed into its own individual Bugdorm (Watkins and Doncaster, 44545), to prevent repulsed or displaced aphids moving from one condition to another. Numbers of alive and dead aphids on the plant were counted 48 hours post spray, and the presence of any fresh nymphs noted. Plants were watered prior to spraying but not afterwards to eliminate the possibility of drowning any aphids present or washing off the sprayed liquid.
The vehicle control group was used to determine baseline lethality. Results for neuropeptide analogues were calculated as % lethality in the remaining population after adjustment for the baseline.

[4] = system: bumblebees (Bombus terrestris); experiment: Bumblebee acute oral toxicity test; type: in vivo
Experimental: Oral toxicity against bumblebees (Bombus terrestris) was determined as previously described:
OECD (2017), Test No. 247: Bumblebee, Acute Oral Toxicity Test, OECD Guidelines for the Testing of Chemicals, Section 2, OECD Publishing, Paris, https://doi.org/10.1787/9789264284128-en.
Example data are provided for peptides, AH56, AH257, AH259 in Tables 4, 5 below. […]
Data were acquired for: feeding behaviour—weight of liquid consumed pre- and post-treatment; lethality (days).
There was no negative impact on feeding behaviour from capa peptides. Acute bumblebee toxicity was also assessed for other peptide candidates including: AH270, PEG270. Overall, capa peptides are bee safe.

[5] = Table 11, individual bees, peptide 1 × 10 − 5M or Spirotetramat 25 uM

## H-LY-Aib-FARV-NH2 (H-LY[Aib]FARV-NH2; SMILES CC(C)C[C@H](N)C(=O)N[C@@H](Cc1ccc(O)cc1)C(=O)NC(C)(C)C(=O)N[C@@H](Cc1ccccc1)C(=O)N[C@@H](C)C(=O)N[C@@H](CCCNC(=N)N)C(=O)N[C@H](C(N)=O)C(C)C) [AH387]
[1]
  Feeding D. suzukii, % lethality in population after adjustment for baseline: 62%
M. persicae [2]
  Feeding Aphid, % lethality in population after adjustment for baseline: 14%
M. persicae [2]; 60 h
  Feeding Aphid, % lethality in population after adjustment for baseline: 6 (35%
M. persicae [3]; M. persicae feeding, 10^−5 M, 120 hours
  mean lethality: ~60%
M. persicae [3]; M. persicae feeding, 10^−5 M, 120 hours, single sample
  lethality observed in one sample of 30 insects: 90%
Myzus persicae aphids
  Spray Aphid, % lethality in population after adjustment for baseline: 12%

## H-LYAFAR-(Me)V-NH2 (H-LYAFAR[NMeV]-NH2; SMILES CC(C)C[C@H](N)C(=O)N[C@@H](Cc1ccc(O)cc1)C(=O)N[C@@H](C)C(=O)N[C@@H](Cc1ccccc1)C(=O)N[C@@H](C)C(=O)N[C@@H](CCCNC(=N)N)C(=O)N(C)[C@H](C(N)=O)C(C)C) [AH380]
[1]
  Feeding D. suzukii, % lethality in population after adjustment for baseline: 45%
M. persicae [2]
  Feeding Aphid, % lethality in population after adjustment for baseline: 12%
Myzus persicae aphids
  Spray Aphid, % lethality in population after adjustment for baseline: 33%

## Ac-LVAFPRV-NH2 [AH33]
[1]
  D. suzukii (Mean% Lethality ± SD): 43.50%
  D. suzukii (Sig Diff Grp): A

## Ac-LYAFPRV-NH2 [AH32]
[1]
  D. suzukii (Mean% Lethality ± SD): 41.50%
  D. suzukii (Sig Diff Grp): A

## Guanidyl-LV-(Me)A-FPRV-NH2 (Guanidyl-LV[NMeA]FPRV-NH2; SMILES CC(C)C[C@H](NC(N(C)C)=[N+](C)C)C(=O)N[C@H](C(=O)N(C)[C@@H](C)C(=O)N[C@@H](Cc1ccccc1)C(=O)N1CCC[C@H]1C(=O)N[C@@H](CCCNC(=N)N)C(=O)N[C@H](C(N)=O)C(C)C)C(C)C) [AH258]
[1]
  D. suzukii (Mean% Lethality ± SD): 47.75%
  D. suzukii (Sig Diff Grp): A

## Palmitoyl-LYAFPRV-NH2 (SMILES CCCCCCCCCCCCCCCC(=O)N[C@@H](CC(C)C)C(=O)N[C@@H](Cc1ccc(O)cc1)C(=O)N[C@@H](C)C(=O)N[C@@H](Cc1ccccc1)C(=O)N1CCC[C@H]1C(=O)N[C@@H](CCCNC(=N)N)C(=O)N[C@H](C(N)=O)C(C)C) [AH62]
M. persicae [3]; Peptide screening, Table 5
  M. persicae (% Lethality): 29%

## CCOC(=O)OC1=C(c2cc(C)ccc2C)C(=O)N[C@]12CC[C@@H](OC)CC2 [Spirotetramat, reference compound]
[4]; Table 11, group mean, n=10
  Liquid post exposure (weight), Mean: 1.109 g
  liquid consumed per day post exposure, Mean: 0.2773 g
[4]; [5]
  Liquid post exposure (weight): 0.7878 g and 1.2332 g and 0.2963 g and 1.7853 g and 1.2062 g and 2.1130 g and 0.6196 g and 0.7732 g and 1.3842 g and 0.8924 g
  days alive: 4 days
  liquid consumed per day post exposure: 0.1970 g and 0.3083 g and 0.0741 g and 0.4463 g and 0.3016 g and 0.5283 g and 0.1549 g and 0.1933 g and 0.3461 g and 0.2231 g

## H-Nle-LYAFPRV-NH2 [AH51]
[1]
  D. suzukii (Mean% Lethality ± SD): 38.63%
  D. suzukii (Sig Diff Grp): A

## Palmitoyl-LVAFPRV-NH2 (SMILES CCCCCCCCCCCCCCCC(=O)N[C@@H](CC(C)C)C(=O)N[C@H](C(=O)N[C@@H](C)C(=O)N[C@@H](Cc1ccccc1)C(=O)N1CCC[C@H]1C(=O)N[C@@H](CCCNC(=N)N)C(=O)N[C@H](C(N)=O)C(C)C)C(C)C) [AH59]
[1]
  D. suzukii (Mean% Lethality ± SD): 44.13%
  D. suzukii (Sig Diff Grp): A

## 4-Benzoyl benzoic-LYAFPRV-NH2 ({Benzoyl(4-benzoyl)}-LYAFPRV-NH2; SMILES CC(C)C[C@H](NC(=O)c1ccc(C(=O)c2ccccc2)cc1)C(=O)N[C@@H](Cc1ccc(O)cc1)C(=O)N[C@@H](C)C(=O)N[C@@H](Cc1ccccc1)C(=O)N1CCC[C@H]1C(=O)N[C@@H](CCCNC(=N)N)C(=O)N[C@H](C(N)=O)C(C)C) [AH49]
[1]
  D. suzukii (Mean% Lethality ± SD): 41.13%
  D. suzukii (Sig Diff Grp): A

## 4-Benzoyl benzoic-LVAFPRV-NH2 ({Benzoyl(4-benzoyl)}-LVAFPRV-NH2; SMILES CC(C)C[C@H](NC(=O)c1ccc(C(=O)c2ccccc2)cc1)C(=O)N[C@H](C(=O)N[C@@H](C)C(=O)N[C@@H](Cc1ccccc1)C(=O)N1CCC[C@H]1C(=O)N[C@@H](CCCNC(=N)N)C(=O)N[C@H](C(N)=O)C(C)C)C(C)C) [AH55]
[1]
  D. suzukii (Mean% Lethality ± SD): 54.50%

## O=[N+]([O-])NC1=NCCN1Cc1ccc(Cl)nc1 [imidacloprid, Imidacloprid, reference compound]
[4]; 28.3 uM, on day 1
  lethality of bumblebees: 100%
[4]; Table 10, individual bees, peptide ×10−5M or imidacloprid 28.3 uM in 50% sucrose, 0.1% ATPlus
  dead?: 1
[4]; individual bees, peptide ×10−5M or imidacloprid 28.3 uM in 50% sucrose, 0.1% ATPlus
  Est weight sucrose consumed post testing/day: 0.0822 grams/day and 0.0000 grams/day and 0.0495 grams/day and 0.0562 grams/day and 0.2205 grams/day and 0.4394 grams/day
[4]; individual bees, post minus pre testing sucrose consumption
  Feeding impacted? (+ve feeding increased post pep, −ve feeding decreased post pep): −0.1179 grams/day and −0.1209 grams/day and −0.1306 grams/day and −0.3025 grams/day and −0.1495 grams/day and −0.1412 grams/day and 0.0704 grams/day and −0.3396 grams/day and 0.1955 grams/day and −0.2914 grams/day and −0.3507 grams/day
[4]; per treatment group
  T-test outcome, sucrose consumed Pre vs Post: Feeding sig reduced
